In patent US11535599B2, “Benzisoxazole derivative” (Sumitomo Pharma Co., Ltd., priority 2020, dated 2022):
pIC50: −log10 of the molar value. Where two headings read alike, the source gives them in different places.

Tests used:
[1] = tested on: reserpine-induced Parkinson's disease model mouse; experiment: Potentiating effect of levodopa-induced hyperactivity in reserpine-induced Parkinson's disease model mouse; format: in vivo; conditions: Examples 12.5 or 25 mg/kg oral; rasagiline 3 or 10 mg/kg; with levodopa 200 mg/kg i.p.
Experimental: Dopamine-depleted mice due to reserpine treatment are model mice of akinesia symptoms in Parkinson's disease, said symptoms are relieved with levodopa (L-DOPA). The effect of the present compounds for potentiating the levodopa's effect was tested.
In the present test, male Crl: CD1 (ICR) mice (CHARLES RIVER LABORATORIES JAPAN, INC.) were used. 20-24 hours before starting the movement measurement, reserpine (3 mg/kg) was intraperitoneally administered to the mouse. One hour before starting the movement measurement, the present compound (12-.5 mg/kg or 25 mg/kg of. Examples 1, 2, 3, 4, and 5) was orally administered to the mouse. Shortly before starting the movement measurement, levodopa (200 mg/kg) with benserazide whose amount was ¼ of levodopa in free form was intraperitoneally administered to the mouse. The movement measurement was carried out for 90 minutes, and each total movement was compared.

[2] = tested on: unilateral lesion model of nigrostriatal dopamine neuron induced with 6-OHDA; experiment: Extending duration of levodopa-induced rotational behavior in 6-OHDA unilateral lesion model; format: in vivo, rat; conditions: Examples 10 or 30 mg/kg oral; rasagiline 0.6 mg/kg; with levodopa 5 mg/kg i.p.
human CA-II = human CA-II (Homo sapiens (Human), UniProt P00918); experiment: Activity for inhibiting carbonic anhydrase (CA); format: biochemical; conditions: 4-nitrophenyl acetate substrate
Experimental: CA is a zinc metalloenzyme family which catalyzes reversible hydration between carbon dioxide, and bicarbonate and proton.
As a substance for decomposition by CA-II, 4-nitrophenyl acetate was used herein. 4-Nitrophenyl acetate is […] with CA-II to produce 4-nitrophenol. […] To the diluted solution were added […] (final concentration: 5 mmol/L) and the present compound of each concentration, and the mixture was incubated at 37° C. under shading for 30 minutes. […] The IC50 of the compound was obtained through the two-parameter logistic model with the inhibitory rate data in each concentration which was obtained from plural trials.

human Cav3.3 = human Cav3.3 (Homo sapiens (Human), UniProt Q9P0X4); experiment: T-type calcium channel inhibitory activity, whole-cell patch-clamp with HEK293 cell; format: cell-based; conditions: for inhibition at 600 µM: HEK293, 600 μmol/L, read-out: Cav3.3 % inhibitory rate; for pIC50: dose-reactive test, read-out: Cav3.3 IC50 (parenthesized)
Experimental: (§1) The inhibitory activity of the present compounds for T-type calcium channel was measured by whole-cell patch-clamp method with HEK293 cell (vendor of HEK 293 cell: ATCC, Manassas, Va., USA, builder of expressing cell: ChanTest Corporation., Cleveland, Ohio, USA), in which human Cav3.1, human Cav3.2, or human Cav3.3 is expressed. The culture medium used for HEK293 cell was prepared by adding fetal bovine serum (10%), sodium penicillin G (100 U/mL), streptomycin sulfate (100 μg/mL), and G418 (500 μg/mL) to a mixture medium of Dulbecco's modified Eagle's medium/Ham's F-12 medium. The whole-cell current was evaluated with IonWorks Barracuda system and Population Patch Clamp (both are provided by Molecular Device Corporation, Union City, Calif., USA). The extracellular recording solution used during the recording was Hanks' balanced salt solution. The internal recording solution used herein was 50 mmol/L CsCl, 90 mmol/L CsF, 5 mmol/L MgCl2, 1 mmol/L glycol ether diamine tetraacetic acid (EGTA), and 10 mmol/L 4-(2-hydroxyethyl)piperazine-1-ethanesulfonic acid (HEPES (pH 7.2). The holding voltage was held at −90 mV, then changed to −65 mV. 60 seconds later, −20 mV pulse was added thereto for 200 millisecond to activate the channel on plasma membrane and generate calcium current. The calcium current was recorded with an amplifier of IonWorks Barracuda system, and analyzed with a program of the system (Version 2.0.2). The record of the calcium current was obtained twice, before and after the addition of the compound. In the measurement after adding the compound, the cells were exposed to the recording solution containing the compound for more than 5 minutes and then the current was measured. In the analyses, the ratio of current readout after the compound addition per current readout before the compound addition was calculated, the calculated value was subtracted from one, and the obtained value was converted to percentage. […] The value obtained from each compound was canonicalized based on the two ends of values to obtain each inhibitory rate. The positive control compound used herein was TTA-A2 which is known as T-type calcium channel inhibitor. IC50 value was calculated with Hill equation.
(§2) Each inhibitory rate (%) against T-type calcium channel at the evaluation concentration of the present compound (600 μmol/L) is shown in Table 12, in which the parenthesized values are IC50 values (μmol/L)) calculated from the dose-reactive test.

human Cav3.2 = human Cav3.2 (Homo sapiens (Human), UniProt O95180); experiment: as above; format: cell-based; conditions: for inhibition at 600 µM: HEK293, 600 μmol/L, read-out: Cav3.2 % inhibitory rate; for pIC50: dose-reactive test, read-out: Cav3.2 IC50 (parenthesized)
Sequence of human Cav3.2 (O95180 whole entry): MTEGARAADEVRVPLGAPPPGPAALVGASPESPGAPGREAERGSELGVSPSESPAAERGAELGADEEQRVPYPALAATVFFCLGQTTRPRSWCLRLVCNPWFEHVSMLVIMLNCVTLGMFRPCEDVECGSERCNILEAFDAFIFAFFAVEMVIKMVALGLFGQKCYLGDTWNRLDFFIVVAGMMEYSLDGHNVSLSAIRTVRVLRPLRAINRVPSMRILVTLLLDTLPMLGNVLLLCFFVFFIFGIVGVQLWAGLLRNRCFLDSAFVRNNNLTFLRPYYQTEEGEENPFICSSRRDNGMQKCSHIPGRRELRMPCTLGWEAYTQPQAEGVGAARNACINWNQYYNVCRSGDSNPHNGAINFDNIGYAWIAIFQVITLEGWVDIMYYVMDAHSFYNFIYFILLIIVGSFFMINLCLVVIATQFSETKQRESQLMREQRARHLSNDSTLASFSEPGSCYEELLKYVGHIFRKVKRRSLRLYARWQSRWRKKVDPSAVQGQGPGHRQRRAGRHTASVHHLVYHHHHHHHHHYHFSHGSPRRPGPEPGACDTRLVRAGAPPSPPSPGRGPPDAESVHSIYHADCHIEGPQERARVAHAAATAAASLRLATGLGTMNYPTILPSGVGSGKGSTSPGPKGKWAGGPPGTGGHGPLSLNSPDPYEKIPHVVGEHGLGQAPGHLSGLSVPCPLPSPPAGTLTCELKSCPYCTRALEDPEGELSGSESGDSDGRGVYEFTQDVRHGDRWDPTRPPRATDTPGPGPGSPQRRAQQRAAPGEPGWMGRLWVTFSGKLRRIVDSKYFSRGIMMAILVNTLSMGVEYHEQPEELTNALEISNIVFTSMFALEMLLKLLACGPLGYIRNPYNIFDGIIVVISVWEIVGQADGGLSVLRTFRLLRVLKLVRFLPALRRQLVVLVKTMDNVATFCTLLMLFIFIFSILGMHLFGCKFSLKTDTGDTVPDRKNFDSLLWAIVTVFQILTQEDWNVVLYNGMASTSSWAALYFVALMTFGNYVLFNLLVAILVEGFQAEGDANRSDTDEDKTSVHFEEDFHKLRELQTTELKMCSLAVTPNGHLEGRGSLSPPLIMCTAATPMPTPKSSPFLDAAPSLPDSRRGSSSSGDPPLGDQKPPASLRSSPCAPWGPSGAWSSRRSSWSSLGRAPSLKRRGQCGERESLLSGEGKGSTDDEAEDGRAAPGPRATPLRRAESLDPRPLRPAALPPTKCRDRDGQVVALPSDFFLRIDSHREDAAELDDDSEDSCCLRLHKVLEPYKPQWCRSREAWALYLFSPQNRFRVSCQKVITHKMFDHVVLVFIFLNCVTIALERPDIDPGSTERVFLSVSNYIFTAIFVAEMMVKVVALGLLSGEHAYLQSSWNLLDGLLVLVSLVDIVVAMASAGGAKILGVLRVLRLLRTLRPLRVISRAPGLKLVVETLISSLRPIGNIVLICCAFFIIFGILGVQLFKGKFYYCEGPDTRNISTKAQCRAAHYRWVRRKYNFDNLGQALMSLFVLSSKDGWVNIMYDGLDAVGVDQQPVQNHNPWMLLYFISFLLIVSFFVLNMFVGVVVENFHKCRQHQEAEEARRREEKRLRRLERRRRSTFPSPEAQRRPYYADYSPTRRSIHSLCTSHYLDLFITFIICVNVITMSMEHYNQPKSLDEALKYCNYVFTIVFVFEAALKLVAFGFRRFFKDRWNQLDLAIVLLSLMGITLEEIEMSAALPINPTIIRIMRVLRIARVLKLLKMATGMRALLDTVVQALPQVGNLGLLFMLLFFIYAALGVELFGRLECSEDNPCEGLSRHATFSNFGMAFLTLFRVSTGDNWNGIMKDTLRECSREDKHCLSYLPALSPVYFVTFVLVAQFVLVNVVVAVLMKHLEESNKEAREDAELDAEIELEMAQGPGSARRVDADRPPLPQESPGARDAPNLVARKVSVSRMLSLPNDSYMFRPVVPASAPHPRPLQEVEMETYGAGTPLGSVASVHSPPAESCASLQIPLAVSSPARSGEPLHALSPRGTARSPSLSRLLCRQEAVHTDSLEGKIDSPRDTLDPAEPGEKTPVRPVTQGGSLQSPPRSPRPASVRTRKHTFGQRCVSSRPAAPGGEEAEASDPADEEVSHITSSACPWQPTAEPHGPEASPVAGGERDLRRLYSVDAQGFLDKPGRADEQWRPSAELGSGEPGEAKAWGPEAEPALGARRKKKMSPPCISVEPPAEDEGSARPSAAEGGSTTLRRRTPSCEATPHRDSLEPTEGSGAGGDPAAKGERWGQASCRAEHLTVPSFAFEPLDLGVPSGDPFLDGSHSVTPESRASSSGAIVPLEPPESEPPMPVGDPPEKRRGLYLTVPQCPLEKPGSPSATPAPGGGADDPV
Experimental: as §1, §2

human Cav3.1 = human Cav3.1 (Homo sapiens (Human), UniProt O43497); experiment: as above; format: cell-based; conditions: for inhibition at 600 µM: HEK293, 600 μmol/L, read-out: Cav3.1 % inhibitory rate; for pIC50: dose-reactive test, read-out: Cav3.1 IC50 (parenthesized)
Sequence of human Cav3.1 (O43497 whole entry): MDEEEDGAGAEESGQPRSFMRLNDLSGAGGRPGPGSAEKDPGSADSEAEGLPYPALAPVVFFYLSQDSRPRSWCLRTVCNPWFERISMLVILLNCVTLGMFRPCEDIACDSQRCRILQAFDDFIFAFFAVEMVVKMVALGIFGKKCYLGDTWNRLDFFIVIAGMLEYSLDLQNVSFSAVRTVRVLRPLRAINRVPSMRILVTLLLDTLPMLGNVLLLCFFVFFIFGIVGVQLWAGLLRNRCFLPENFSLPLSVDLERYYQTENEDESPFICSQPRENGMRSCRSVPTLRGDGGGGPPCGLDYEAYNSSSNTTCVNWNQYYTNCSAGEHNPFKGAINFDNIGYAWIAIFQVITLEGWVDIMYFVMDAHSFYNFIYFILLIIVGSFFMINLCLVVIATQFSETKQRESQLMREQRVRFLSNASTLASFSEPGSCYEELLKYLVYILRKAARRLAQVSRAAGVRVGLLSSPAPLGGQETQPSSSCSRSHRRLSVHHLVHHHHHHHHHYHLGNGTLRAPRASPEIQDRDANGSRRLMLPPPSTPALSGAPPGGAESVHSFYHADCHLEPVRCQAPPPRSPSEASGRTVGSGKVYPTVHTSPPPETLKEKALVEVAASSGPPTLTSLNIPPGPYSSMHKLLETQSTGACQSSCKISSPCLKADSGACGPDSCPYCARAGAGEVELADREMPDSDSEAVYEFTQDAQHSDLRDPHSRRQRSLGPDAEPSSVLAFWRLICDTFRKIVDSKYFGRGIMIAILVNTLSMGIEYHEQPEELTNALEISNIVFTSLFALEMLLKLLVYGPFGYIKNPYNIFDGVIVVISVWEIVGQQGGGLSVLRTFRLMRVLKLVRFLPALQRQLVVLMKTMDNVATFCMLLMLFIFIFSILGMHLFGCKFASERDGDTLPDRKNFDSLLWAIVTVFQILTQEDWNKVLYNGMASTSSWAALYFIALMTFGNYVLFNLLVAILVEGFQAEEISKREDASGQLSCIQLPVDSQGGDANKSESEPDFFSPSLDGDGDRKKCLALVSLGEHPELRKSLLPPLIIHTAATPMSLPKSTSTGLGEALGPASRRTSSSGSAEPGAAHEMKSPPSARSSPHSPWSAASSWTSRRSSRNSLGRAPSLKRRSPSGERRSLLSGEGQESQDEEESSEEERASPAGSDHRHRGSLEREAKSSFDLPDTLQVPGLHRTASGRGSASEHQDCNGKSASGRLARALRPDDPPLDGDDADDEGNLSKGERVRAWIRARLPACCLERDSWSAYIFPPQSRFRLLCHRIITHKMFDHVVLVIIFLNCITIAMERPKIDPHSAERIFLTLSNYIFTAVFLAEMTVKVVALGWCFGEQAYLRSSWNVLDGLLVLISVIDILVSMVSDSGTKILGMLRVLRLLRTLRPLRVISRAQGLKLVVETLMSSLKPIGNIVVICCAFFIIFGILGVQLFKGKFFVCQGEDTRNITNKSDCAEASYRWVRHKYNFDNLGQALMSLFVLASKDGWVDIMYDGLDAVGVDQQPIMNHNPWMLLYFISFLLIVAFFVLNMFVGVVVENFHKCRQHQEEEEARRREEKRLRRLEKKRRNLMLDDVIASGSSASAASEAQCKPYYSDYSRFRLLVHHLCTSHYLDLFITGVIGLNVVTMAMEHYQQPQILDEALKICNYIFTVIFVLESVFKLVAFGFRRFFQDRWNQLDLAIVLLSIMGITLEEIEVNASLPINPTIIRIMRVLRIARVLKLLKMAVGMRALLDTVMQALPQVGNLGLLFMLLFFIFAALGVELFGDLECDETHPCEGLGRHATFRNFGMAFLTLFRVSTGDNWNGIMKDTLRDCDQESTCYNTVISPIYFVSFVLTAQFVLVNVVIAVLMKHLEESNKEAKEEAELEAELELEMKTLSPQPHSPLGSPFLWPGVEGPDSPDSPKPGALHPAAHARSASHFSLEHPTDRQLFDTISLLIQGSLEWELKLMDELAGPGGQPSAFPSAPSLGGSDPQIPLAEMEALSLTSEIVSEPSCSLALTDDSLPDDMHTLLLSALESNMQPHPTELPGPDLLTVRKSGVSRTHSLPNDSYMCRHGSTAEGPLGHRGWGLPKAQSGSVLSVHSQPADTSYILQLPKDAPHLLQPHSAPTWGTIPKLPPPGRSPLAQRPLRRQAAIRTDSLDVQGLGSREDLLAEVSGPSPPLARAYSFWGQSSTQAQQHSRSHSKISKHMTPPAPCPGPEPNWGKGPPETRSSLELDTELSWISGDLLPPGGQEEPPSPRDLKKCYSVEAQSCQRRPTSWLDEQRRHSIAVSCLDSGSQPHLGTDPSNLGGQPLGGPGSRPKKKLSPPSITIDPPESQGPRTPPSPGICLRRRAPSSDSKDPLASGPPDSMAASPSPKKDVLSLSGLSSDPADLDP
Experimental: as §1, §2

Rat striatum MAOB = Rat striatum MAOB (Rattus norvegicus (Rat), UniProt P19643); experiment: Activity for inhibiting monoamine oxidase B (MAOB); format: biochemical
Experimental: MAOB is an enzyme involved in oxidative de-amino acid reaction of an endogenous monoamine neurotransmitter such as dopamine. […] The effect of the present compounds for inhibiting MAOB in rat striatum and simian striatum was tested.
Mitochondria⋅synaptosome fraction containing MAOB was prepared according to the following procedure. To striata of male Slc: Wistar rat (Japan SLC, Inc.) or male cynomolgus monkey (HAMRI CO., LTD.) was added 0.32 mol/L aqueous sucrose by 10 mL per 1 gram as wet weight of the tissue, and the mixture was homogenized. The homogenate was centrifuged at 4° C. at 1,000 g for 10 minutes, and the obtained supernatant was centrifuged again at 4° C. at 17,200 g for 20 minutes. To the obtained precipitate was added a prepared buffer solution (10 mmol/L Tris-HCl buffer solution (pH 7.4), 0.25 mol/L aqueous sucrose, 0.5 mmol/L EDTA-2K) by 10 mL per 1 gram as wet weight of the original tissue, and the mixture was centrifuged again at 4° C. at 17,200 g for 20 minutes. To the obtained precipitate was added the prepared buffer solution by 40 mL per 1 gram as wet weight of the original tissue. The mixture was suspended to be used as an enzyme homogenate solution.
As a substance to be degraded by MAOB, ^14C-labeled β-phenylethylamine ([^14C] β-PEA) was used. [^14C] β-PEA and the present compound solution diluted to each concentration were incubated with the enzyme homogenate solution at 37° C. for a given period, and then the reaction was stopped by adding 3 mol/L cold HCl thereto. The reaction product was extracted with a mixture of water-saturated toluene and ethyl acetate (1:1). The supernatant organic layer was separated, a liquid scintillation cocktail (ACSII, GE Healthcare) was added to the separated organic layer, and the radioactivity was measured with a liquid scintillation counter (TRI-CARB 3100TR, Packard). The IC50 value of each compound was determined based on two parameter logistic model with the inhibitory data of each concentration, said data were obtained from plural trials.

[3] = [14C] β-PEA substrate, read-out: Rat striatum MAOB IC50

| SMILES | levodopa-induced hyperactivity (total movement, 90 minutes) [1] | rotational number in the late phase (100-120 minutes) [2] | pIC50 (human CA-II) | inhibition at 600 µM (human Cav3.3) | inhibition at 600 µM (human Cav3.2) | inhibition at 600 µM (human Cav3.1) | pIC50 (Rat striatum MAOB; [3]) | pIC50 (human Cav3.3) | pIC50 (human Cav3.2) | pIC50 (human Cav3.1) | pIC50 (Rat striatum MAOB; Rat striatum MAOB IC50, [14C] β-PEA substrate) | MAOB inhibitory action (Rat striatum MAOB; rat striatum, in words) |
| --- | --- | --- | --- | --- | --- | --- | --- | --- | --- | --- | --- | --- |
| CC(C)(c1noc2ccccc12)S(N)(=O)=O [Example 2, 2-(1,2-benzoxazol-3-yl)propane-2-sulfonamide] | significantly-potentiating effect of levodopa-induced hyperactivity | significantly increased the rotational number in the late phase | 4.10 | 70% | 64% | 72.7% | < 3.22 |  |  |  |  |  |
| NS(=O)(=O)C(F)c1noc2ccccc12 (stereo not shown) [Example 3, 1-(1,2-benzoxazol-3-yl)-1-fluoromethane-sulfonamide] | significantly-potentiating effect of levodopa-induced hyperactivity | did not show statistically-significant increase, but showed a tendency to increase the rotational number in the late phase | 7.08 | 61% | 64% | 69.9% | 4.00 | 3.36 | 3.44 | 3.49 |  |  |
| NS(=O)(=O)C(F)(F)c1noc2ccccc12 [Example 4, 1-(1,2-benzoxazol-3-yl)-1,1-difluoromethane-sulfonamide] | significantly-potentiating effect of levodopa-induced hyperactivity |  | 7.64 |  |  |  | 3.41 |  |  |  |  |  |
| NS(=O)(=O)C1(c2noc3ccccc23)CC1 [Example 5, 1-(1,2-benzoxazol-3-yl)cyclopropane-1-sulfonamide] | significantly-potentiating effect of levodopa-induced hyperactivity | did not show statistically-significant increase, but showed a tendency to increase the rotational number in the late phase | 5.28 | 55.6% | 54% | 64.5% | < 3.22 |  |  |  |  |  |
| CCC(c1noc2ccccc12)S(N)(=O)=O (stereo not shown) [Example 6, 1-(1,2-benzoxazol-3-yl)propane-1-sulfonamide] |  |  | 4.34 | 72.9% | 67.4% | 80.4% | < 3.22 |  |  |  |  |  |
| CCCC(c1noc2ccccc12)S(N)(=O)=O (stereo not shown) [Example 7, 1-(1,2-benzoxazol-3-yl)butane-1-sulfonamide] |  |  | 4.48 |  |  |  | < 3.22 |  |  |  |  |  |
| CC(F)(c1noc2ccccc12)S(N)(=O)=O (stereo not shown) [Example 8, 1-(1,2-benzoxazol-3-yl)-1-fluoroethane-1-sulfonamide] |  | did not show statistically-significant increase, but showed a tendency to increase the rotational number in the late phase | 5.66 | 73% | 70.3% | 83.1% | < 3.22 | 3.49 | 3.50 | 3.67 |  |  |
| CC(C)C(c1noc2ccccc12)S(N)(=O)=O (stereo not shown) [Example 9, 1-(1,2-benzoxazol-3-yl)-2-methylpropane-1-sulfonamide] |  |  |  | 94.3% | 96.9% | 96.5% |  |  |  |  |  |  |
| COc1ccc2onc(C(C)S(N)(=O)=O)c2c1 (stereo not shown) [Example 10, 1-(5-methoxy-1,2-benzoxazol-3-yl)ethane-1-sulfonamide] |  |  |  | 69.7% | 57.7% | 68.5% | < 3.22 |  |  |  |  |  |
| CC(c1noc2ccc(F)cc12)S(N)(=O)=O (stereo not shown) [Example 11, 1-(5-fluoro-1,2-benzoxazol-3-yl)ethane-1-sulfonamide] |  |  |  | 54.3% | 50.8% | 56% | < 3.22 |  |  |  |  |  |
| CC(c1noc2ccc(Cl)cc12)S(N)(=O)=O (stereo not shown) [Example 12, 1-(5-chloro-1,2-benzoxazol-3-yl)ethane-1-sulfonamide] |  |  |  | 93% | 91.5% | 95% | 3.82 |  |  |  |  |  |
| C[C@H](NCc1ccc(OCc2cccc(F)c2)cc1)C(N)=O [safinamide, reference compound] |  | did not show statistically-significant increase, but showed a tendency to increase the rotational number in the late phase |  |  |  |  |  |  |  |  | 6.71 | strong MAOB inhibitory action |
